Holding throughout (experiment): relative viability (nuclei count vs DMSO), 5 days (fraction); higher = more cells survive
Compound in assay [1]: CC(C)CCN1c2nc(Nc3cc(F)c(O)c(F)c3)ncc2N(C)C(=O)C1C [BI-D1870] + CC1(C)CCC(c2ccc(Cl)cc2)=C(CN2CCN(c3ccc(C(=O)NS(=O)(=O)c4ccc(N[C@H](CCN5CCOCC5)CSc5ccccc5)c(S(=O)(=O)C(F)(F)F)c4)cc3)CC2)C1 [Navitoclax] (partner 0.5 µM)
In short, it runs like this: (§1)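 Lung cancer cell lines in 1536-well plates got either a single drug or a fixed anchor-drug dose together with five library-drug doses (not always all listed) in √10 steps, by pin tool, on the day after seeding. Nuclei were counted after 5 days, and relative viability is the treated-to-vehicle ratio of nuclei counts. Values are medians of duplicate plates.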

Compound in assay [2]: O=c1ncccn1[C@@H]1O[C@H](CO)[C@@H](O)[C@H]1O [Zebularine] + Cc1nc(Nc2ncc(C(=O)Nc3c(C)cccc3Cl)s2)cc(N2CCN(CCO)CC2)n1 [Dasatinib] (partner 0.075 µM)
Summed up:
as §1

Compound in assay [3]: CC(C)CCN1c2nc(Nc3cc(F)c(O)c(F)c3)ncc2N(C)C(=O)C1C [BI-D1870] + CS(=O)(=O)N1CCN(Cc2cc3nc(-c4cccc5[nH]ncc45)nc(N4CCOCC4)c3s2)CC1 [Pictilisib] (partner 1 µM)
In short, it runs like this:
as §1

Compound in assay [4]: CC(C)CCN1c2nc(Nc3cc(F)c(O)c(F)c3)ncc2N(C)C(=O)C1C [BI-D1870] + O=C(c1cc(Cc2n[nH]c(=O)c3ccccc23)ccc1F)N1CCN(C(=O)C2CC2)CC1 [Olaparib] (partner 8 µM)
In short, it runs like this: as §1

For UMC-11, the relative viability turned out to be 0.287 in assay [1] (first compound 0.04 µM); 0.295 in assay [1] (first compound 0.1265 µM); 0.311 in assay [1] (first compound 0.4 µM); 0.336 in assay [1] (first compound 1.265 µM); 0.129 in assay [1] (first compound 4 µM); 0.514 in assay [2] (first compound 1 µM). Moreover, the relative viability in assay [2] (first compound 3.162 µM) amounted to 0.471; in assay [2] (first compound 10 µM), 0.205; in assay [2] (first compound 31.62 µM), 0.436; in assay [2] (first compound 100 µM), 0.324; in assay [3] (first compound 0.04 µM) it was 0.908; in assay [3] (first compound 0.1265 µM) it was 0.608. The relative viability in assay [3] (first compound 0.4 µM) was found to be 0.759; in assay [3] (first compound 1.265 µM) it was 0.733; in assay [3] (first compound 4 µM), 0.316; in assay [4] (first compound 0.04 µM), 0.36; in assay [4] (first compound 0.1265 µM), 0.363; in assay [4] (first compound 0.4 µM), 0.369. The figures for the relative viability in assay [4] (first compound 1.265 µM) and in assay [4] (first compound 4 µM) were 0.374 and 0.204, respectively.

The values are drawn from the supplement of paper PMC10307832.
